Reference: patent publication US20240043427A1 (Gilead Sciences, Inc., priority 2020, published 2024)

What was measured:
CD73 [1] = biological target: T1, CD73 (Homo sapiens (Human), UniProt P21589); type: biochemical; settings: 1 mM NaH2PO4 in enzyme buffer, CD73 0.3 nM, AMP 15 uM
CD73 [2] = biological target: T1, CD73; experiment: MDA-MB-231 Cell Based CD73 Activity Assay (DMEM); settings: MDA-MB-231-GFP cells, DMEM medium with 10% human plasma, 200 uM AMP

T1 sequence (P21589 27-574): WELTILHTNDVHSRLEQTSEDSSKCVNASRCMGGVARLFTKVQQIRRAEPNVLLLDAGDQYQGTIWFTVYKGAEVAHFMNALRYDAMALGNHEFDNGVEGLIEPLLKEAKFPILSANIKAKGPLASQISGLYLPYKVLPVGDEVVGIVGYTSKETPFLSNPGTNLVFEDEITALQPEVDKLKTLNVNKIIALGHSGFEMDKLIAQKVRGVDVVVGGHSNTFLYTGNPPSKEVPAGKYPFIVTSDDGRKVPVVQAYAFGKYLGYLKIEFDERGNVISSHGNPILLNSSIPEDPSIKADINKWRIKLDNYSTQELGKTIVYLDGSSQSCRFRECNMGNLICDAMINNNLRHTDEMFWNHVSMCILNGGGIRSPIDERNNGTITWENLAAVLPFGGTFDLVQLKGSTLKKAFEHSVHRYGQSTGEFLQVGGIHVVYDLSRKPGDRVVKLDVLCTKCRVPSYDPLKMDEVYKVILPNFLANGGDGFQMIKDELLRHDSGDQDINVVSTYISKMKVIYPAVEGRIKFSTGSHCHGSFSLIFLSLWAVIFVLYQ

SMILES	IC50 (CD73 [1]) [nM]	EC50 (CD73 [2]) [nM]
O=c1[nH]cc(-c2cc([C@H]3C[C@@H]3c3ccc(C(F)(F)F)cc3)c3nccn3n2)c(=O)[nH]1 [Example 554, 5-(8-((1S,2S)-2-(4-(trifluoromethyl)phenyl)cyclopropyl)imidazo[1,2-b]pyridazin-6-yl)pyrimidine-2,4(1H,3H)-dione]	1.57	12
N#Cc1c(F)cc([C@H]2C[C@@H]2c2cc(-c3c[nH]c(=O)[nH]c3=O)nn3ccnc23)cc1F [Example 557, 4-((1S,2S)-2-(6-(2,4-dioxo-1,2,3,4-tetrahydropyrimidin-5-yl)imidazo[1,2-b]pyridazin-8-yl)cyclopropyl)-2,6-difluorobenzonitrile]	1.71	9.73
N#Cc1ccc([C@H]2C[C@@H]2c2cc(-c3c[nH]c(=O)[nH]c3=O)nn3ccnc23)c(F)c1F [Example 558, 4-((1S,2S)-2-(6-(2,4-dioxo-1,2,3,4-tetrahydropyrimidin-5-yl)imidazo[1,2-b]pyridazin-8-yl)cyclopropyl)-2,3-difluorobenzonitrile]	2.87	20.4
COc1cc([C@H]2C[C@@H]2c2cc(-c3c[nH]c(=O)[nH]c3=O)nn3ccnc23)ccc1C#N [Example 559, 4-((1S,2S)-2-(6-(2,4-dioxo-1,2,3,4-tetrahydropyrimidin-5-yl)imidazo[1,2-b]pyridazin-8-yl)cyclopropyl)-2-methoxybenzonitrile]	0.97	7.77
Cc1cc([C@H]2C[C@@H]2c2cc(-c3c[nH]c(=O)[nH]c3=O)nn3ccnc23)ccc1C#N [Example 560, 4-((1S,2S)-2-(6-(2,4-dioxo-1,2,3,4-tetrahydropyrimidin-5-yl)imidazo[1,2-b]pyridazin-8-yl)cyclopropyl)-2-methylbenzonitrile]	0.85	2.86
O=c1[nH]cc(-c2cc([C@H]3C[C@@H]3c3ccc(OC(F)F)cc3)c3nccn3n2)c(=O)[nH]1 [Example 561, 5-(8-((1S,2S)-2-(4-(difluoromethoxy)phenyl)cyclopropyl)imidazo[1,2-b]pyridazin-6-yl)pyrimidine-2,4(1H,3H)-dione]	0.71	3.06
O=c1[nH]cc(-c2cc([C@H]3C[C@@H]3c3ccc4nc(C(F)(F)F)sc4c3)c3nccn3n2)c(=O)[nH]1 [Example 562, 5-(8-((1S,2S)-2-(2-(trifluoromethyl)benzo[d]thiazol-6-yl)cyclopropyl)imidazo[1,2-b]pyridazin-6-yl)pyrimidine-2,4(1H,3H)-dione]	0.97	2.64
N#Cc1ccc([C@H]2C[C@@H]2c2cc(-c3c[nH]c(=O)[nH]c3=O)nn3ccnc23)cc1C1CC1 [Example 563, 2-cyclopropyl-4-((1S,2S)-2-(6-(2,4-dioxo-1,2,3,4-tetrahydropyrimidin-5-yl)imidazo[1,2-b]pyridazin-8-yl)cyclopropyl)benzonitrile]	0.66	10.6
N#Cc1cc(F)c([C@H]2C[C@@H]2c2cc(-c3c[nH]c(=O)[nH]c3=O)nn3ccnc23)cc1F [Example 565, 4-((1S,2S)-2-(6-(2,4-dioxo-1,2,3,4-tetrahydropyrimidin-5-yl)imidazo[1,2-b]pyridazin-8-yl)cyclopropyl)-2,5-difluorobenzonitrile]	1.98	9.24
N#Cc1ccc([C@H]2C[C@@H]2c2cc(-c3c[nH]c(=O)[nH]c3=O)nn3ccnc23)cc1Cl [Example 566, 2-chloro-4-((1S,2S)-2-(6-(2,4-dioxo-1,2,3,4-tetrahydropyrimidin-5-yl)imidazo[1,2-b]pyridazin-8-yl)cyclopropyl)benzonitrile]	0.78	4.46
Cc1cc([C@H]2C[C@@H]2c2cc(-c3c[nH]c(=O)[nH]c3=O)nn3ccnc23)cc(F)c1C#N [Example 567, 4-((1S,2S)-2-(6-(2,4-dioxo-1,2,3,4-tetrahydropyrimidin-5-yl)imidazo[1,2-b]pyridazin-8-yl)cyclopropyl)-2-fluoro-6-methylbenzonitrile]	1.73	7.93
O=c1[nH]cc(-c2cc(N3CCC4(CCC4)C3)c3nccn3n2)c(=O)[nH]1 [Example 569, 5-(8-(6-azaspiro[3.4]octan-6-yl)imidazo[1,2-b]pyridazin-6-yl)pyrimidine-2,4(1H,3H)-dione]	6.66	11.2
O=c1[nH]cc(-c2cc(N3CCC4(C3)CC(F)(F)C4)c3nccn3n2)c(=O)[nH]1 [Example 571, 5-(8-(2,2-difluoro-6-azaspiro[3.4]octan-6-yl)imidazo[1,2-b]pyridazin-6-yl)pyrimidine-2,4(1H,3H)-dione]	30.4	62.3
COCC1(C)CCN(c2cc(-c3c[nH]c(=O)[nH]c3=O)nn3ccnc23)C1 (stereo not drawn) [Example 572, 5-(8-(3-(methoxymethyl)-3-methylpyrrolidin-1-yl)imidazo[1,2-b]pyridazin-6-yl)pyrimidine-2,4(1H,3H)-dione]	25.3	93.9
N#Cc1cc(F)c([C@H]2C[C@@H]2c2cc(-c3c[nH]c(=O)[nH]c3=O)nn3c(F)cnc23)cc1F [Example 573, 4-((1S,2S)-2-(6-(2,4-dioxo-1,2,3,4-tetrahydropyrimidin-5-yl)-3-fluoroimidazo[1,2-b]pyridazin-8-yl)cyclopropyl)-2,5-difluorobenzonitrile]	1.21	7.46
O=c1[nH]cc(-c2cc(N3CC4CC(C3)C4(F)F)c3nccn3n2)c(=O)[nH]1 [Example 575, 5-(8-(6,6-difluoro-3-azabicyclo[3.1.1]heptan-3-yl)imidazo[1,2-b]pyridazin-6-yl)pyrimidine-2,4(1H,3H)-dione]	57.1	142
O=c1[nH]cc(-c2cc(N3CCC(C4CC4)C3)c3nccn3n2)c(=O)[nH]1 (stereo not drawn) [Example 577, 5-(8-(3-cyclopropylpyrrolidin-1-yl)imidazo[1,2-b]pyridazin-6-yl)pyrimidine-2,4(1H,3H)-dione]	19.6	81.2
O=c1[nH]cc(-c2cc(N3CCC(C4CC(F)(F)C4)C3)c3nccn3n2)c(=O)[nH]1 (stereo not drawn) [Example 578, 5-(8-(3-(3,3-difluorocyclobutyl)pyrrolidin-1-yl)imidazo[1,2-b]pyridazin-6-yl)pyrimidine-2,4(1H,3H)-dione]	161	1870
O=c1[nH]cc(-c2cc([C@H]3C[C@@H]3c3ccc(Cl)cn3)c3ncc(F)n3n2)c(=O)[nH]1 [Example 584, 5-(8-((1S,2S)-2-(5-chloropyridin-2-yl)cyclopropyl)-3-fluoroimidazo[1,2-b]pyridazin-6-yl)pyrimidine-2,4(1H,3H)-dione]	0.91	2.98
O=c1[nH]cc(-c2cc([C@H]3C[C@@H]3c3ccc(Cl)cn3)c3nccn3n2)c(=O)[nH]1 [Example 585, 5-(8-((1S,2S)-2-(5-chloropyridin-2-yl)cyclopropyl)imidazo[1,2-b]pyridazin-6-yl)pyrimidine-2,4(1H,3H)-dione]	0.69	1.9
O=c1[nH]cc(-c2cc([C@H]3C[C@@H]3c3ncc(Cl)cc3F)c3nccn3n2)c(=O)[nH]1 [Example 586, 5-(8-((1S,2S)-2-(5-chloro-3-fluoropyridin-2-yl)cyclopropyl)imidazo[1,2-b]pyridazin-6-yl)pyrimidine-2,4(1H,3H)-dione]	0.85	2.94
